Peptide text beside a SMILES is read from it.
Experiments:
clinical = assay: clinical; design: species or system human; settings: in vivo, iv
Source text: The SAD/MAD study was a phase 1, double-blind, placebo-controlled, multicohort trial. Part 1 used a SAD design according to which subjects received a single i.v. dose of SPR741. Part 2 used a MAD design in which subjects received multiple daily i.v. doses of SPR741 over a period of 14 days. The objective was to assess the safety/tolerability and PK of single and multiple ascending doses of SPR741. In the SAD phase, healthy volunteers were screened within 28 days prior to dosing. Subjects were admitted to the clinical facility on day −1 for up to 3 days. A single dose of SPR741 (or placebo) was administered on day 1. Following completion of all safety assessments and sampling for PK analyses, subjects were discharged on day 2. A follow-up visit occurred 5 to 7 days after day 1 dosing. In the MAD phase, all subjects were admitted to the clinical facility on day −1. Dosing commenced on the morning of day 1. Three doses were administered daily at approximately 8 (±0.5)-h intervals for a total of 14 consecutive days. The last dose was administered on the morning of day 14. Blood and urine samples were collected for assessment of PK parameters. Subjects were discharged on day 16 following completion of all PK sample collection and safety assessments, and a follow-up visit occurred 5 to 7 days after the last dose. In the SAD phase, subjects were randomized to one of eight cohorts that received doses of 5, 15, 50, 100, 200, 400, 600 or 800 mg of SPR741. Within each cohort, two subjects received placebo, and six received SPR741. In cohort 1, two subjects (sentinels) were dosed with SPR741 or placebo 48 h prior to dosing of the remaining subjects. The remaining six subjects were dosed only after no safety concerns were identified in the sentinel subjects. After each dose cohort had completed administration of study drug and evaluation, a Safety Monitoring Group reviewed blinded cumulative safety data (including day 5 to day 7 follow-up data) to confirm the safety and tolerability of SPR741.

[1] = design: species or system human; settings: in vivo
Source text: The SAD/MAD study was a phase 1, double-blind, placebo-controlled, multicohort trial. Part 1 used a SAD design according to which subjects received a single i.v. dose of SPR741. Part 2 used a MAD design in which subjects received multiple daily i.v. doses of SPR741 over a period of 14 days. The objective was to assess the safety/tolerability and PK of single and multiple ascending doses of SPR741. In the SAD phase, healthy volunteers were screened within 28 days prior to dosing. Subjects were admitted to the clinical facility on day −1 for up to 3 days. A single dose of SPR741 (or placebo) was administered on day 1. Following completion of all safety assessments and sampling for PK analyses, subjects were discharged on day 2. A follow-up visit occurred 5 to 7 days after day 1 dosing. In the MAD phase, all subjects were admitted to the clinical facility on day −1. Dosing commenced on the morning of day 1. Three doses were administered daily at approximately 8 (±0.5)-h intervals for a total of 14 consecutive days. The last dose was administered on the morning of day 14. Blood and urine samples were collected for assessment of PK parameters. Subjects were discharged on day 16 following completion of all PK sample collection and safety assessments, and a follow-up visit occurred 5 to 7 days after the last dose. In the SAD phase, subjects were randomized to one of eight cohorts that received doses of 5, 15, 50, 100, 200, 400, 600 or 800 mg of SPR741. Within each cohort, two subjects received placebo, and six received SPR741. In cohort 1, two subjects (sentinels) were dosed with SPR741 or placebo 48 h prior to dosing of the remaining subjects. The remaining six subjects were dosed only after no safety concerns were identified in the sentinel subjects. After each dose cohort had completed administration of study drug and evaluation, a Safety Monitoring Group reviewed blinded cumulative safety data (including day 5 to day 7 follow-up data) to confirm the safety and tolerability of SPR741. For both studies, safety assessments included clinical laboratory testing (hematology, coagulation, serum chemistry, renal chemistry, and urinalysis), vital signs (blood pressure, heart rate, body temperature, and respiratory rate), physical examination, and triplicate 12-lead ECGs. […] Adverse events were recorded at each study visit.

Structure (SMILES): CC(=O)N[C@H](C(=O)N[C@H](CO)C(=O)N[C@H]1CCNC(=O)[C@H]([C@@H](C)O)NC(=O)[C@H](CCN)NC(=O)[C@H](CCN)NC(=O)[C@H](CC(C)C)NC(=O)[C@@H](Cc2ccccc2)NC(=O)[C@H](CCN)NC1=O)[C@@H](C)O [SPR741] (HELM PEPTIDE1{[ac].T.[dS].[Dab].[Dab].[dF].L.[Dab].[Dab].T}$PEPTIDE1,PEPTIDE1,4:R3-10:R2$$$V2.0)
- Tmax (clinical; human): 1 h
- AUC(0-inf) (clinical; human, 5 mg): 1010 ng·h/mL
- Cmax (clinical; human, 5 mg): 370 ng/mL
- Vd (clinical; human, 5 mg): 14.4 L
- clearance (clinical; human, 5 mg): 83.3 mL/min
- half-life (clinical; human, 5 mg): 2.02 h
- AUC(0-inf) (clinical; human, 15 mg): 3090 ng·h/mL
- Cmax (clinical; human, 15 mg): 924 ng/mL
- Vd (clinical; human, 15 mg): 19.7 L
- clearance (clinical; human, 15 mg): 84 mL/min
- half-life (clinical; human, 15 mg): 2.81 h
- AUC(0-inf) (clinical; human, 50 mg): 9740 ng·h/mL
- Cmax (clinical; human, 50 mg): 3250 ng/mL
- Vd (clinical; human, 50 mg): 18.4 L
- clearance (clinical; human, 50 mg): 86.3 mL/min
- half-life (clinical; human, 50 mg): 2.48 h
- AUC(0-inf) (clinical; human, 100 mg): 18200 ng·h/mL
- Cmax (clinical; human, 100 mg): 6010 ng/mL
- Vd (clinical; human, 100 mg): 20.6 L
- clearance (clinical; human, 100 mg): 92.5 mL/min
- half-life (clinical; human, 100 mg): 2.57 h
- AUC(0-inf) (clinical; human, 200 mg): 37300 ng·h/mL
- Cmax (clinical; human, 200 mg): 13400 ng/mL
- Vd (clinical; human, 200 mg): 20.3 L
- clearance (clinical; human, 200 mg): 91 mL/min
- half-life (clinical; human, 200 mg): 2.62 h
- AUC(0-inf) (clinical; human, 400 mg): 82200 ng·h/mL
- Cmax (clinical; human, 400 mg): 26000 ng/mL
- Vd (clinical; human, 400 mg): 24.5 L
- clearance (clinical; human, 400 mg): 81.5 mL/min
- half-life (clinical; human, 400 mg): 3.47 h
- AUC(0-inf) (clinical; human, 600 mg): 133000 ng·h/mL
- Cmax (clinical; human, 600 mg): 38000 ng/mL
- Vd (clinical; human, 600 mg): 24.6 L
- clearance (clinical; human, 600 mg): 77 mL/min
- half-life (clinical; human, 600 mg): 3.76 h
- AUC(0-inf) (clinical; human, 800 mg): 190000 ng·h/mL
- Cmax (clinical; human, 800 mg): 52600 ng/mL
- Vd (clinical; human, 800 mg): 21.2 L
- clearance (clinical; human, 800 mg): 70.8 mL/min
- half-life (clinical; human, 800 mg): 3.46 h
- time of peak mean plasma concentration (clinical): approximately 1 h
- TEAE classified as a renal or urinary disorder [1]: No subjects
- abnormal serum creatinine value [1]: no subject
- headache: No. (%) of subjects [1]: 4 (8%)
- severe TEAE or serious adverse event [1]: No subject
